Measurements taken from patent US20230338395A1, “PROPHYLAXIS AND TREATMENT OF CORONAVIRUS INFECTION” (priority 2020, published 2023).

Experiments:
[1] = tested on: tlr7 gene expression; conditions: SLE-patients; cited from earlier work
[2] = tested on: COVID-19; conditions: severely ill COVID-19 patients; cited from earlier work
[3] = tested on: SARS-CoV-2; test: Pulmonary inflammation after SARS-CoV-2 challenge in MRL-Fas lpr mice; type: in vivo; conditions: 40 mg/kg/day intraperitoneal from around day 15 after viral clearance, lungs inspected at day 40 post infection
[4] = tested on: SARS-CoV-1; parameters: species or system mice; conditions: mouse, in vivo
[5] = tested on: lethal respiratory virus infections; conditions: aged mice, intranasal treatment; cited from earlier work
[6] = tested on: classical swine fever; parameters: species or system pigs; conditions: pig, in vivo, 0.1 mg/kg

C=C1CC[C@H](O)C/C1=C/C=C1\CCC[C@]2(C)[C@@H]([C@H](C)CCCC(C)C)CC[C@@H]12 [vitamin D3]
tlr7 gene expression [1]: down-regulating tlr7 gene expression
protection from thrombosis and embolism [2]: protect severely ill COVID-19 patients from thrombosis and embolism

CCN(CCO)CCCC(C)Nc1ccnc2cc(Cl)ccc12 (stereo not shown) [hydroxychloroquine]
severity of pulmonary inflammation (score 0-4) [3]: improved

Polyinosinic:polycytidylic acid [poly(IC)]
protection compared with the other tlr agonists [4]: most protective
survival [4]: increase survival
protection from lethal respiratory virus infections [5]: protects aged mice from lethal respiratory virus infections
infection fatality rate [6]: lower than the infection fatality rate of the untreated subpopulation
